Data on eleven compounds can be found in US5869500A, “Pyridone compounds useful in treating Alzheimer's disease” (Hoffmann-La Roche Inc., priority 1996, dated 1999).

The test system of the experiment is Aβ production in HEK cells over-expressing mutated β-APP (SFAD). Put plainly: Aβ production inhibition, sandwich-ELISA in HEK cells, over-expressed mutated β-APP (SE-SFAD). The format is cell-based, human. To be noted: Homo sapiens, HEK293, HEK cells; for IC50: based on the respective plateau of maximum inhibition; for Emax: maximum inhibition plateau, read-out: SE-SFAD max. inhibition %. As to the method:
The effect of test substances on the inhibition of Aβ-amyloid production can be measured in the supernatant of cell cultures of β-APP expressed cells using ELISA tests or other quantitative determination methods for β-APP degradation products. Typically, 8×10^5 cells (e.g. HEK cells, which express recombinant human β-APP variants) are plated out in each well of a culture dish having 24 wells in growth media such as e.g. OPTIMEM (Gibco) and the test compound is then added. After an incubation period of 24 to 48 hours at 37° C. in a 10% CO2 atmosphere the supernatant is removed from the cell cultures and the β-APP degradation products (e.g. Aβ or β-[…]) are determined with the aid of ELISA (or sandwich ELISA) analysis or by means of quantitative immunoprecipitation (after metabolic radiolabelling of the cell proteins). Typically, 300 μl of the cell supernatant are tested according to the state of the art for ELISA tests in culture dishes having 96 wells. In the case of sandwich ELISA for Aβ, the binding antibody can be directed against the first 16 amino acids of Aβ-peptide (e.g. 6E10 Senetek, Maryland Heights, Mo.) and the detection antibody can be directed against amino acids 17-40 or 17-42 of Aβ and carries a detection system such as e.g. peroxidase. A simple ELISA test with an antibody, e.g. 22C11 (Boehringer Mannheim), can be used as the test for […]; the second antibody can be an anti-(mouse) Ig having a detection system, such as e.g. peroxidase. The peroxidase reaction can be carried out e.g. using a TMB substrate (BioRAD) and the measurements can be carried out at 650 nm using an ELISA reading apparatus. […] SE-SFAD signifies the Aβ production inhibition measured using sandwich-ELISA in HEK cells, SFAD signifies over-expressed mutated β-APP, and SE-WT signifies the Aβ production inhibition measured using sandwich-ELISA in HEK cells which over-express Wild type β-APP. The IC50 values are based on the respective plateau of maximum inhibition.
(ELISA stands for enzyme-linked immunosorbent assay.)

One may read the IC50 as the concentration that gives 50% inhibition.

Consider `CCN(CCOC)C(=O)c1cc(-c2ccc(Oc3ccccc3)cc2)c(=O)n2ccc3ccsc3c12` [Compound 99, 7-Oxo-8-(4-phenoxy-phenyl)-7H-thieno[2,3-a]quinolizine-10-carboxylic acid ethyl-(2-methoxy-ethyl)-amide], for which inhibition was half-maximal at 2500 nM (IC50) and the Emax was found to be 100%.

For `COCCN(Cc1ccccc1)C(=O)c1cc(-c2ccc(Oc3ccccc3)cc2)c(=O)n2ccc3ccsc3c12` [Compound 100, 7--Oxo-8-(4-phenoxy-phenyl)-7H-thieno[2,3-a]quinolizine-10-carboxylic acid benzyl-(2-methoxy-ethyl)-amide], the IC50 turned out to be 600 nM and the Emax was 100%.

As for `COCCN(C(=O)c1cc(-c2ccc(Oc3ccccc3)cc2)c(=O)n2ccc3ccsc3c12)c1ccccc1` [Compound 101, 7--Oxo-8-(4-phenoxy-phenyl)-7H-thieno[2,3-a]quinolizine-10-carboxylic acid (2-methoxy-ethyl)-phenyl-amide], the midpoint of inhibition, the IC50, lay at 900 nM and the Emax was 100%.

Regarding `COCCN(C(=O)c1cc(-c2ccc(OCc3ccccc3)cc2)c(=O)n2ccc3c(ncn3C)c12)c1ccccc1` [Compound 102, 8-(4-Benzyloxy-phenyl)-3-methyl-7-oxo-3,7-dihydro-imidazo [4,5-a]quinolizine-10-carboxylic acid (2-methoxy-ethyl)-phenyl-amide], the half-inhibitory concentration (IC50) is 3600 nM and the Emax amounted to 80%.

Regarding `COCCN(CCOC)C(=O)c1cc(-c2ccc(OCc3ccccc3)cc2)c(=O)n2ccc3c(ncn3C)c12` [Compound 103, 8-(4-Benzyloxy-phenyl)-3-methyl-7-oxo-3,7-dihydro-imidazo[4,5-a]-quinolizine-10-carboxylic acid bis-(2-methoxy-ethyl)-amide], the half-maximal inhibitory concentration (IC50) is 5000 nM and the Emax was 35 to 55%.

For `COCCN(CC1CC1)C(=O)c1cc(-c2ccc(OCc3ccccc3)cc2)c(=O)n2ccc3c(ncn3C)c12` [Compound 104, 8-(4-Benzyloxy-phenyl)-3-methyl-7-oxo-3,7-dihydro-imidazo [4,5-a]-quinolizine-10-carboxylic acid cyclopropylmethyl-(2-methoxy-ethyl)-amide], the IC50 was determined as 3000 nM and the Emax was found to be 100%.

Take `CCCN(CCOC)C(=O)c1cc(-c2ccc(OCc3ccccc3)cc2)c(=O)n2ccc3c(ncn3C)c12` [Compound 105, 8-(4-Benzyloxy-phenyl)-3-methyl-7-oxo-3,7-dihydro-imidazo[4,5-a]-quinolizine-10-carboxylic acid (2-methoxy-ethyl)-propyl-amide]: the IC50 turned out to be 5000 nM and the Emax came to 50%.

In the case of `CCN(CCOC)C(=O)c1cc(-c2ccc(C(C)(C)C)cc2)c(=O)n2ccc3ccsc3c12` [Compound 107, 8-(4-tert-Butyl-phenyl)-7-oxo-7H-thieno[2,3-a]quinolizine-10-carboxylicacid ethyl-(2-methoxy-ethyl)-amide], it took 3000 nM to reach half-maximal inhibition (IC50) and the Emax was 20%.

Take `COCCNC(=O)c1cc(-c2ccc(C(C)(C)C)cc2)c(=O)n2ccc3ccsc3c12` [Compound 110, 8-(4-tert-Butyl-phenyl)-7-oxo-7H-thieno[2,3-a]quinolizine-10-carboxylicacid (2-methoxy-ethyl)-amide]: the IC50 was found to be 6200 nM and the Emax came to 95%.

With `COCCN(C(=O)c1cc(-c2ccc(C(C)(C)C)cc2)c(=O)n2ccc3ccsc3c12)c1ccccc1` [Compound 111, 8-(4-tert-Butyl-phenyl)-7-oxo-7H-thieno[2,3-a]quinolizine-10-carboxylicacid (2-methoxy-ethyl)-phenyl-amide], the IC50 turned out to be 2500 nM and the Emax is 100%.

As to `COCCN(CC1CC1)C(=O)c1cc(-c2ccc(C(C)(C)C)cc2)c(=O)n2ccc3ccsc3c12` [Compound 112, 8-(4-tert-Butyl-phenyl)-7-oxo-7H-thieno[2,3-a]quinolizine-10-carboxylicacid cyclopropylmethyl-(2-methoxy-ethyl)-amide], the IC50 turned out to be 1500 nM and the Emax is 100%.
